Measured values: article PMC9000482, “Inhibition of Aldose Reductase by Ginsenoside Derivatives via a Specific Structure Activity Relationship with Kinetics Mechanism and Molecular Docking Study” (Molecules, 2022)
Where two headings read alike, the source gives them in different places. Marks after values point to notes of the source that are not given here.

Key:
[1] = molecular target: T1, human recombinant aldose reductase (HRAR) (Homo sapiens, UniProt P15121); assay: Enzyme kinetics of HRAR inhibition (Lineweaver-Burk and Dixon plots); type: biochemical; details: for HRAR Mode of Inhibition: Lineweaver-Burk plot
T1 construct: purchased Wako Chemicals (Osaka, Japan)
Method: (§1) Enzyme inhibition with different concentrations ([…]) was assessed by monitoring the effects of different concentrations of the substrate. The following concentrations of test ginsenosides were used in the RLAR kinetics analysis: 0, 2, 10, and 50 µM for protopanaxadiol; 0, 0.5, 2.5, and 10 µM for (20S) ginsenoside Rg3; 0, 0.5, 2.5, and 10 µM for (20R) ginsenoside Rg3; 0, 0.1, 0.5, and 2.5 µM for ginsenoside Rh2; 0, 2, 10, and 50 µM for protopanaxatriol; 0, 0.8, 4, and 20 µM for ginsenoside Rf; 0, 0.8, 4, and 20 µM for (20S) ginsenoside Rg2, and 0, 0.5, 2.5, and 10 µM for ginsenoside Rh1. Using Lineweaver-Burk double reciprocal plots, the inhibition type was determined using various concentrations of DL-glyceraldehyde (5, 10, and 20 mM) for HRAR as a substrate in the presence of different concentrations of the active test ginsenosides. The concentrations of test ginsenosides in the HRAR kinetics analysis were as follows: 0, 0.1, 0.5, and 2.5 µM for protopanaxadiol; 0, 0.5, 2, and 10 µM for (20S) ginsenoside Rg3; 0, 1, 5, and 20 µM for (20R) ginsenoside Rg3; 0, 0.5, 2.5, and 10 µM for ginsenoside Rh2; 0, 0.1, 0.5, and 2.5 µM for compound K; 0, 1, 5, and 10 µM for protopanaxatriol; 0, 0.5, 4, and 20 µM for (20R) ginsenoside Rg2, and 0, 0.2, 2, and 5 µM for ginsenoside Rh1. The Dixon plot is a graphical method [1/enzyme velocity (1/V)] against inhibitor concentration [I] used to determine the type of enzyme inhibition; it was used to identify the dissociation or inhibition constant (Ki) for the enzyme-inhibitor complex. Dixon plots (single reciprocal plots) for RLAR and HRAR inhibition were obtained in the presence of 100, 50, and 10 mM RLAR, and 20, 10, and 5 mM HRAR DL-glyceraldehyde substrate. Thus, the type of enzyme inhibition was determined by interpreting the Lineweaver-Burk plots, and the inhibition constants (Ki) were determined by interpreting the Dixon plots.

[2] = molecular target: T1, human recombinant aldose reductase (HRAR); assay: HRAR inhibition assay (DL-glyceraldehyde substrate); type: biochemical; details: for HRAR inhibitory activity (in words): at the concentrations tested
Method: HRAR inhibition was studied according to Nishimura et al.. AR action was studied by measuring the reduction in NADPH absorption at 340 nm over a period of 1 min on a UV/visible spectrophotometer (Ultrospec®2100pro, Biochrom, Holliston, MA, USA). For HRAR inhibition, the HRAR enzyme (0.4 units), was used in all enzyme inhibition evaluations. […] The inhibition percentage (%) was measured as designated in the RLAR assay. The DA sample/min value characterizes the decrease in absorbance for 1 min with the test samples and substrate. The ability of each sample to inhibit HRAR was observed as an IC50 value (µM) and measured from the log-dose inhibition curve.

[3] = tested on: sorbitol accumulation in rat lens; assay: Lens culture and intracellular sorbitol measurement (ex vivo); type: cell-based, Sprague-Dawley rats; details: 25 mM glucose, 6 days, sample 5 μg/mL, mean ± SD (n = 3); for inhibition at 5 µg/mL: Rattus norvegicus, 144 h
[4] = molecular target: T2, rat lens aldose reductase (RLAR) (Rattus norvegicus, UniProt P07943); assay: RLAR inhibitory activity assay (rat lens homogenate, DL-glyceraldehyde substrate); type: biochemical
T2 construct: from tissue; host or cells: lens of Sprague-Dawley rats (supernatant of homogenate)
Method: A rat lens homogenate was prepared with minor modifications according to the method reported by Hayman et al.. Briefly, the lenses were removed from the eyes of Sprague-Dawley rats weighing 250–280 g. They were homogenized in sodium phosphate buffer (pH 6.2) that was prepared with dibasic sodium phosphate (Na2HPO4∙H2O, 0.66 g) and monobasic sodium phosphate (NaH2PO4∙H2O, 1.27 g) in 100 mL of double-distilled H2O. The homogenate was clarified by centrifugation at 10,000 rpm at 4 °C for 20 min and the resultant supernatant was frozen until use. A crude AR homogenate with a specific activity of 6.5 U/mg was used in all enzyme inhibition evaluations. The reaction solution consisted of 620 µL of 100 mM sodium phosphate buffer (pH 6.2), 90 µL of AR homogenate, 90 µL of 1.6 mM NADPH, and 9 µL of sample, while the substrate included 90 µL of 50 mM DL-glyceraldehyde. […] AR activity was determined by measuring the decrease in NADPH absorption at 340 nm over a 4 min period on an Ultrospec®2100pro UV/Visible spectrophotometer. SWIFT II Applications software (Amersham Biosciences, NJ, USA) was used for all data analyses. The inhibition percentage (%) was calculated as follows in Equation (1):[1 − (∆Asample/min − ∆Ablank/min)/(∆Acontrol/min − ∆Ablank/min)] × 100(1) in which ∆Asample/min represents the test sample and substrate’s reduction in absorbance over 4 min, and ∆A control/min represents the same reduction in absorbance, but with 100% DMSO (dimethyl sulfoxide) rather than the test sample.

[5] = molecular target: T2, rat lens aldose reductase (RLAR); assay: Enzyme kinetics of RLAR inhibition (Lineweaver-Burk and Dixon plots); type: biochemical; details: for RLAR Mode of Inhibition: Lineweaver-Burk plot
Method: as §1

[6] = Dixon plots, single inhibition constant, read-out: HRAR Ki
[7] = substrate DL-glyceraldehyde, mean ± S.E.M. of triplicate experiments, read-out: HRAR IC50
[8] = rat lens homogenate, substrate DL-glyceraldehyde, mean ± S.E.M. of triplicate experiments, read-out: RLAR IC50
[9] = Dixon plots, read-out: RLAR Kic (binding constant of inhibitor with free enzyme)

Row | Structure (SMILES) | HRAR Mode of Inhibition [1] | IC50 [2, 7] [µM] | Sorbitol Content (mg)/Lens Wet Weight (g) [3] | IC50 [4, 8] [µM] | inhibition at 5 µg/mL [3] [%] | RLAR Mode of Inhibition [5] | also measured
1 | CC(C)=CCCC(C)(O)C1CCC2(C)C1C(O)CC1C3(C)CCC(O)C(C)(C)C3C(OC3OC(CO)C(O)C(O)C3OC3OC(C)C(O)C(O)C3O)CC12C [(20R) ginsenoside Rg2] | Non-competitive | 13.7 ± 0.99 | 0.83 ± 0.01 ^c mg/g | 29.4 ± 2.33 | – | – | Ki [1, 6]: 11.7 µM; Inhibition (%) of sorbitol accumulation in rat lens [3]: 51.74 ± 2.99 ^c %
2 | CC(C)=CCCC(C)(O)C1CCC2(C)C1C(O)CC1C3(C)CCC(OC4OC(CO)C(O)C(O)C4OC4OC(CO)C(O)C(O)C4O)C(C)(C)C3CCC12C [(20R) ginsenoside Rg3] | Mixed type | – | 0.89 ± 0.01 ^c mg/g | – | 48.2 ± 3.99 | Competitive type | HRAR Kiu (binding constant of inhibitor with enzyme-substrate complex) ([1]; Dixon plots): 17.99 µM; Ki ([1]; read-out: HRAR Kic (binding constant of inhibitor with free enzyme), Dixon plots): 11.1 µM; IC50 ([2]; read-out: HRAR IC50, substrate DL-glyceraldehyde, mean ± S.E.M. of triplicate experiments): 8.67 ± 0.87 µM; IC50 ([4]; read-out: RLAR IC50, rat lens homogenate, substrate DL-glyceraldehyde, mean ± S.E.M. of triplicate experiments): 4.28 ± 0.31 µM; RLAR Mode of Inhibition ([5]; listed as (20R) Rg3): competitive; Ki ([5]; read-out: RLAR Ki, Dixon plots, single inhibition constant): 3.69 µM
3 | CC(C)=CCCC(C)(O)C1CCC2(C)C1C(O)CC1C3(C)CCC(O)C(C)(C)C3C(OC3OC(CO)C(O)C(O)C3OC3OC(C)C(O)C(O)C3O)CC12C [(20S) ginsenoside Rg2] | – | 15.7 ± 1.05 | 0.73 ± 0.01 ^c mg/g | 14.4 ± 0.99 | 57.5 ± 5.11 | Mixed type | RLAR Kiu (binding constant of inhibitor with enzyme-substrate complex) ([5]; Dixon plots): 17.04 µM; Ki [5, 9]: 10.8 µM
4 | CC(C)=CCC[C@](C)(O)C1CC[C@]2(C)[C@@H]1[C@H](O)CC1[C@@]3(C)CC[C@H](O[C@@H]4O[C@H](CO)[C@@H](O)[C@H](O)[C@H]4O[C@@H]4O[C@H](CO)[C@@H](O)[C@H](O)[C@H]4O)C(C)(C)C3CC[C@]12C (stereo partly drawn) [(20S) ginsenoside Rg3] | Competitive type | – | 0.37 ± 0.01 ^b mg/g | – | 78.5 ± 4.27 | Competitive type | Ki [1]: 8.06 µM; IC50 [2]: 9.92 ± 0.56 µM; IC50 [4]: 1.25 ± 0.28 µM; Ki [5]: 1.97 µM; RLAR Mode of Inhibition ([5]; listed as (20S) Rg3): competitive
5 | CC(C)=CCC[C@](C)(O[C@@H]1O[C@H](CO)[C@@H](O)[C@H](O)[C@H]1O)C1CC[C@]2(C)[C@@H]1[C@H](O)CC1[C@@]3(C)CC[C@H](O)C(C)(C)C3CC[C@]12C (stereo partly drawn) [Compound K] | Competitive type | 2.23 ± 0.54 | 0.46 ± 0.01 ^b mg/g | 41.5 ± 3.99 | 73.2 ± 8.11 | – | Ki [1, 6]: 1.59 µM; HRAR Mode of Inhibition ([1]; listed as compound K): competitive
6 | CC(C)=CCC[C@](C)(O[C@@H]1O[C@H](CO)[C@@H](O)[C@H](O)[C@H]1O)[C@H]1CC[C@]2(C)[C@@H]1[C@H](O)C[C@@H]1[C@@]3(C)CC[C@H](O)C(C)(C)[C@@H]3[C@@H](O[C@@H]3O[C@H](CO)[C@@H](O)[C@H](O)[C@H]3O[C@@H]3O[C@@H](C)[C@H](O)[C@@H](O)[C@H]3O)C[C@]12C [Ginsenoside Re] | – | 43.4 ± 3.11 | – | 81.3 ± 2.18 | – | – | –
7 | CC(C)=CCC[C@](C)(O)[C@H]1CC[C@]2(C)[C@@H]1[C@H](O)C[C@@H]1[C@@]3(C)CC[C@H](O)C(C)(C)[C@@H]3[C@@H](O[C@@H]3O[C@H](CO)[C@@H](O)[C@H](O)[C@H]3O[C@@H]3O[C@H](CO)[C@@H](O)[C@H](O)[C@H]3O)C[C@]12C [Ginsenoside Rf] | – | 19.5 ± 1.55 | 0.28 ± 0.01 ^a mg/g | 11.3 ± 1.49 | 83.7 ± 4.88 | Mixed type | RLAR Kiu (binding constant of inhibitor with enzyme-substrate complex) ([5]; Dixon plots): 18.60 µM; Ki [5, 9]: 11.2 µM
8 | CC(C)=CCC[C@](C)(O[C@@H]1O[C@H](CO)[C@@H](O)[C@H](O)[C@H]1O)[C@H]1CC[C@]2(C)[C@@H]1[C@H](O)C[C@@H]1[C@@]3(C)CC[C@H](O)C(C)(C)[C@@H]3[C@@H](O[C@@H]3O[C@H](CO)[C@@H](O)[C@H](O)[C@H]3O)C[C@]12C [Ginsenoside Rg1] | – | 27.6 ± 2.12 | – | 49.5 ± 1.88 | – | – | –
9 | CC(C)=CC/C=C(\C)[C@H]1CC[C@]2(C)[C@@H]1[C@H](O)C[C@@H]1[C@@]3(C)CC[C@H](O[C@@H]4O[C@H](CO)[C@@H](O)[C@H](O)[C@H]4O[C@@H]4O[C@H](CO)[C@@H](O)[C@H](O)[C@H]4O)C(C)(C)[C@@H]3CC[C@]12C [Ginsenoside Rg5] | – | – | – | – | – | – | IC50 [2]: 38.6 ± 2.91 µM; IC50 [4]: 54.5 ± 1.22 µM
10 | CC(=O)OC[C@H]1O[C@@H](O[C@H]2[C@H](O[C@H]3CC[C@@]4(C)C(CC[C@]5(C)C4C[C@@H](O)[C@@H]4C([C@](C)(CCC=C(C)C)O[C@@H]6O[C@H](CO[C@@H]7OC[C@H](O)[C@H](O)[C@H]7O)[C@@H](O)[C@H](O)[C@H]6O)CC[C@]45C)C3(C)C)O[C@H](CO)[C@@H](O)[C@@H]2O)[C@H](O)[C@@H](O)[C@@H]1O (stereo partly drawn) [Ginsenoside Rs1] | – | > 100 | – | 143 ± 3.77 | – | – | HRAR inhibitory activity (in words) [2]: inactive
11 | CC(=O)OC[C@H]1O[C@@H](O[C@H]2[C@H](O[C@H]3CC[C@@]4(C)C(CC[C@]5(C)C4C[C@@H](O)[C@@H]4C([C@](C)(CCC=C(C)C)O[C@@H]6O[C@H](CO[C@@H]7O[C@@H](CO)[C@H](O)[C@H]7O)[C@@H](O)[C@H](O)[C@H]6O)CC[C@]45C)C3(C)C)O[C@H](CO)[C@@H](O)[C@@H]2O)[C@H](O)[C@@H](O)[C@@H]1O (stereo partly drawn) [Ginsenoside Rs2] | – | > 100 | – | 149 ± 4.22 | – | – | HRAR inhibitory activity (in words) [2]: inactive
12 | O=c1c(O)c(-c2ccc(O)c(O)c2)oc2cc(O)cc(O)c12 [Quercetin, reference compound] | – | – | 0.22 ± 0.01 ^a mg/g | – | 87.2 ± 3.91 | – | –
